{"source": "paper PMC11089204", "about": "(Frontiers in Pharmacology, 2024)", "key": {"[1]": {"test_system": "CYP2D6", "assay": "Influence of CYP2D6 genotype on psilocin plasma exposure in humans", "type": "in vivo", "settings": "human, PM/IM/EM/UM genotypes, AUC z-scores", "experimental": "Genomic DNA was extracted from whole blood using the QIAamp DNA Blood Mini Kit (Qiagen, Hombrechtikon, Switzerland) and an automated QIAcube system. SNP genotyping was performed using commercial TaqMan SNP genotyping assays (LuBio Science, Lucerne, Switzerland). We assayed the following SNPs and respective alleles: CYP2D6*3 (rs35742686, assay: C_32407232_50), CYP2D6*4 (rs3892097, assay: C_27102431_D0, and rs1065852, assay: C_11484460_40), CYP2D6*6 (rs5030655, assay: C_32407243_20), CYP2D6*9 (rs5030656, assay: C_32407229_60), CYP2D6*10 (rs1065852), CYP2D6*17 (rs28371706, assay: C_2222771_A0, and rs16947, assay: C_27102425_10), CYP2D6*29 (rs59421388, assay: C_3486113_20), and CYP2D6*41 (rs28371725, assay: C_34816116_20, and rs16947). CYP2D6 gene deletion (allele *5) and duplication/multiplication (allele *xN) were determined using a TaqMan Copy Number Assay (Hs04502391_cn). Activity scores for CYP2D6 were assigned according to established guidelines ([Gaedigk et al., 2008]; [Crews et al., 2012]; [Hicks et al., 2013]; [Hicks et al., 2015]; [Caudle et al., 2020]). The classification into different genotypes was as follows: poor metabolizer (PM, activity score = 0), intermediate metabolizer (IM, activity score = 0.5–1), extensive metabolizer (EM, activity score = 1.5–2), and ultra-rapid metabolizer (UM, activity score > 2)."}, "[2]": {"test_system": "serotonin transporter (SERT)", "set-up": "method as in Rickli et al., 2016", "settings": "ref Rickli et al., 2016; cited from earlier work"}}}
{"smiles": "CN(C)CCc1c[nH]c2cccc(O)c12", "note": "[psilocin, 4-hydroxy-N,N-dimethyltryptamine]", "values": [{"measurement": "effect of CYP2D6 genotype on plasma concentration of free psilocin", "setting": "[1]", "value": "did not alter"}, {"measurement": "inhibition of SERT", "setting": "[2]", "value": "moderately inhibits"}]}
